Several values for one entry are separate records, joined by “and”; a condition that tells them apart may be missing. Identical values can stand only once.
Tests used:
Type in all cases: cell-based
GluClαE273R/βWT receptor = target: T1, GluClαE273R/βWT receptor (Caenorhabditis elegans, UniProt G5EBR3+Q17328, E273R); test: Whole-cell patch clamp in CHO cells, GluClαE273R/βWT receptor; conditions: 500 nM IVM, -60 mV
T1 construct: entry codes of the full-length subunits used in this study; expressed in transfected cells; host or cells: CHO cells, transient co-transfection 1:1, pcDNA3.1
T1 sequence (G5EBR3 21-461 E273R, one chain of several): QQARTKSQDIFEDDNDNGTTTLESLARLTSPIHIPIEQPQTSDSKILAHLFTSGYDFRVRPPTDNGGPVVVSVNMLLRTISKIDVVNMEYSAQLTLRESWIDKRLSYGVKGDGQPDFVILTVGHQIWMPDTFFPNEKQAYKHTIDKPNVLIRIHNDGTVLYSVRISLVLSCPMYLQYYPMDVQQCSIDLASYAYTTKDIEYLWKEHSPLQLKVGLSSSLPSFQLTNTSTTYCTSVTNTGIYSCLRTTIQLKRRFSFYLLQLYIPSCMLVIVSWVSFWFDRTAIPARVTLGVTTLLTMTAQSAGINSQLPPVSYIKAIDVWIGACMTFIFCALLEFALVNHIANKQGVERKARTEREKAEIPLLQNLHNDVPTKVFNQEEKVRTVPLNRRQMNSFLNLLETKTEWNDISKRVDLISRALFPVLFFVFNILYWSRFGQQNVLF
Experimental: (§1) Chinese hamster ovary (CHO) cells were cultured as previously (Bar-Lev et al., [2011]) in Dulbecco’s Modified Eagle Medium (DMEM) containing 10% fetal calf serum, 2 mM glutamax, 100 Units/ml penicillin G and 100 μg/ml streptomycin, and grown in 5% CO2 at 37°C under 90%–95% humidity. The cells were seeded on glass coverslips (13-mm diameter) placed in a 24-multiwell plate. […] For the expression of GluCl receptors, cells were transiently co-transfected with pcDNA3.1 plasmids containing the ORFs of interest using transit-LT1 transfection reagent (Mirus, Madison, WI, USA), according to the manufacturer’s protocol. The cDNAs encoding the C. elegans GluClα (GLC-1) or its mutated versions and the GluClβ (GLC-2) subunits (200–600 ng per well) were used at 1:1 ratio. The pIRES-CD8 plasmid (200 ng per well) was added to enable the visualization of the expressing cells by beads coated with anti-CD8 antibodies (Invitrogen). […]
(§2) Whole-cell patch clamp recordings were performed as described previously (Bar-Lev et al., [2011]) in CHO cells that were prepared as detailed above. […] The currents were measured with an Axopatch 200B patch-clamp amplifier (Molecular Devices, Sunnyvale, CA, USA) and a Digidata 1440A interface (Molecular Devices). […]

GluClαF276W/βWT receptor = target: T2, GluClαF276W/βWT receptor (Caenorhabditis elegans, UniProt G5EBR3+Q17328, F276W); test: Whole-cell patch clamp in CHO cells, GluClαF276W/βWT receptor; conditions: 500 nM IVM, -60 mV
T2 construct: entry codes of the full-length subunits used in this study; expressed in transfected cells; host or cells: CHO cells, transient co-transfection 1:1, pcDNA3.1
T2 sequence (G5EBR3 21-461 F276W, one chain of several): as the sequence (G5EBR3 21-461 E273R, one chain of several) above, with R253E, F256W counted along it
Experimental: as §1, §2

[1] = target: T3, GluClαWT (GLC-1) homomeric receptor (Caenorhabditis elegans, UniProt G5EBR3); test: Whole-cell patch clamp in CHO cells transfected with GluClαWT subunit alone; conditions: αWT alone, 500 nM IVM, -60 mV
T3 construct: entry codes of the full-length subunits used in this study; expressed in transfected cells; host or cells: CHO cells, transient transfection, pcDNA3.1
T3 sequence (G5EBR3 21-461): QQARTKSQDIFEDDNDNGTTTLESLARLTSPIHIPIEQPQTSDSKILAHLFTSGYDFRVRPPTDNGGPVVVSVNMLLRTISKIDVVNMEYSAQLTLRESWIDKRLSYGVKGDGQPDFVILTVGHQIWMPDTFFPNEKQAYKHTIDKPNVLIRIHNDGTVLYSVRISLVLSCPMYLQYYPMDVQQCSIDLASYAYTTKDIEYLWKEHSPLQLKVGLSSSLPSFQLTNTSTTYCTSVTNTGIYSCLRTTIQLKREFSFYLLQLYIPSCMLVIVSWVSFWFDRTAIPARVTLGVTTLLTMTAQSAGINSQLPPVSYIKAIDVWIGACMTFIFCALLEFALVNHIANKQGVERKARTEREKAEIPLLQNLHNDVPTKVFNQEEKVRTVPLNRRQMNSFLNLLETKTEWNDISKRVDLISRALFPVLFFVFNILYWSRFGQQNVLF

GluClαP192E/βWT receptor = target: T4, GluClαP192E/βWT receptor (Caenorhabditis elegans, UniProt G5EBR3+Q17328, P192E); test: Whole-cell patch clamp in CHO cells, GluClαP192E/βWT receptor; conditions: 500 nM IVM, -60 mV
T4 construct: entry codes of the full-length subunits used in this study; expressed in transfected cells; host or cells: CHO cells, transient co-transfection 1:1, pcDNA3.1
T4 sequence (G5EBR3 21-461 P192E, one chain of several): as the sequence (G5EBR3 21-461 E273R, one chain of several) above, with P172E, R253E counted along it
Experimental: as §1, §2

GluClαF276A/βWT receptor = target: T5, GluClαF276A/βWT receptor (Caenorhabditis elegans, UniProt G5EBR3+Q17328, F276A); test: Whole-cell patch clamp in CHO cells, GluClαF276A/βWT receptor
T5 construct: entry codes of the full-length subunits used in this study; expressed in transfected cells; host or cells: CHO cells, transient co-transfection, pcDNA3.1 (X-tremeGENE HP for the IVM-EC50 experiments)
T5 sequence (G5EBR3 21-461 F276A, one chain of several): as the sequence (G5EBR3 21-461 E273R, one chain of several) above, with R253E, F256A counted along it
Experimental: (§3) Chinese hamster ovary (CHO) cells were cultured as previously (Bar-Lev et al., [2011]) in Dulbecco’s Modified Eagle Medium (DMEM) containing 10% fetal calf serum, 2 mM glutamax, 100 Units/ml penicillin G and 100 μg/ml streptomycin, and grown in 5% CO2 at 37°C under 90%–95% humidity. The cells were seeded on glass coverslips (13-mm diameter) placed in a 24-multiwell plate. […] For the expression of GluCl receptors, cells were transiently co-transfected with pcDNA3.1 plasmids containing the ORFs of interest using transit-LT1 transfection reagent (Mirus, Madison, WI, USA), according to the manufacturer’s protocol. The cDNAs encoding the C. elegans GluClα (GLC-1) or its mutated versions and the GluClβ (GLC-2) subunits (200–600 ng per well) were used at 1:1 ratio. The pIRES-CD8 plasmid (200 ng per well) was added to enable the visualization of the expressing cells by beads coated with anti-CD8 antibodies (Invitrogen). For high-level expression of the GluClαF276A/βWT mutant receptor in experiments assigned to determine its IVM-EC50, we used the X-tremeGENE HP DNA Transfection Reagent (Roche Life Science). Recordings were performed 72–96 h following the transfection.
(§4) Whole-cell patch clamp recordings were performed as described previously (Bar-Lev et al., [2011]) in CHO cells that were prepared as detailed above. The normal external solution (NES) contained (in millimolar): 140 NaCl, 2.8 KCl, 2 CaCl2, 2 MgCl2, 10 glucose and 10 HEPES, adjusted to pH 7.35 with NaOH (310 mOsm/L). The pipette solution contained (in millimolar): 130 KCl, 4 MgCl2, 4 Na2ATP, 1 EGTA and 10 HEPES, adjusted to pH 7.35 with KOH (290 mOsm/L). The osmolarity of these solutions was maintained by adding sucrose. The electrode resistance was 6–10 MΩ when filled with the pipette solution. External solutions were applied onto the cell by using the VC-77SP fast-step system (Warner Instruments, Hamden, CT, USA) combined with N2 pressure of 3–4 psi to produce laminar flow of the external solution onto the patched cell. All measurements were performed at room temperature. The currents were measured with an Axopatch 200B patch-clamp amplifier (Molecular Devices, Sunnyvale, CA, USA) and a Digidata 1440A interface (Molecular Devices). Acquisition of recording data was performed at 2.5 kHz and recordings were low-pass filtered at 1 kHz, through a four-pole Bessel filter. The pClamp 10 software (Molecular Devices) was used for data acquisition. […] Five-hundred milliseconds after the application started (which is also after the current reached to its peak at −60 mV), the voltage was stepped from −60 mV to −80 mV for 50 ms followed by a 250-ms-long voltage ramp ranging from −80 mV to +80 mV.
(§5) Dose-response curves were fitted to the data points by a nonlinear regression using the Hill Equation 1,

GluClαWT/βWT receptor = target: T6, GluClαWT/βWT receptor (Caenorhabditis elegans, UniProt G5EBR3+Q17328); test: Whole-cell patch clamp in CHO cells, GluClαWT/βWT receptor
T6 construct: entry codes of the full-length subunits used in this study; expressed in transfected cells; host or cells: CHO cells, transient co-transfection 1:1, pcDNA3.1
T6 sequence (G5EBR3 21-461): T3 sequence (G5EBR3 21-461)
T6 sequence (Q17328 23-434): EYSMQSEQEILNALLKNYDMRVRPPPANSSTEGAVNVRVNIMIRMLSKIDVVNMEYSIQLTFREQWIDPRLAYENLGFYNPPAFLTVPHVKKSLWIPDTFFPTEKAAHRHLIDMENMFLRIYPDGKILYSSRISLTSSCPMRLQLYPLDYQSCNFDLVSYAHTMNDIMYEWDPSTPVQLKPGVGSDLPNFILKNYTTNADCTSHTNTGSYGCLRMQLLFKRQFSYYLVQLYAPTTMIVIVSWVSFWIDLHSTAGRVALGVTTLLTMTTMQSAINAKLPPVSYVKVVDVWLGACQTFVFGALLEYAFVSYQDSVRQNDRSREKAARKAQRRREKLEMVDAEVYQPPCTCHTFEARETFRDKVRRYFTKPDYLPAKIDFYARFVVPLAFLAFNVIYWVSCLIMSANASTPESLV
Experimental: as §3, §4, §5

[2] = cumulative IVM concentrations, -60 mV

In the case of `CC[C@H](C)[C@H]1O[C@]2(CC[C@@H]1C)C[C@@H]1C[C@@H](C/C=C(\C)[C@@H](O[C@H]3C[C@H](OC)[C@@H](O[C@H]4C[C@H](OC)[C@@H](O)[C@H](C)O4)[C@H](C)O3)[C@@H](C)/C=C/C=C3\CO[C@@H]4[C@H](O)C(C)=C[C@@H](C(=O)O1)[C@]34O)O2` [IVM, ivermectin], the “IVM (500 nM) Amplitude” value (GluClαE273R/βWT receptor) is reported as 1.0 ± 0.2 nA, the “IVM (500 nM) Amplitude” value (GluClαF276W/βWT receptor) is reported as 1.2 ± 0.2 nA and the “IVM (500 nM) Amplitude” value [1] is reported as 1.0 ± 0.3 (14) nA. The “IVM (500 nM) Amplitude” value (GluClαP192E/βWT receptor) was 1.7 ± 0.3 nA, the “increase in IVM-EC50 relative to GluClαWT/βWT” value (GluClαF276A/βWT receptor) was 20 fold and the “Fold decrease in Glu-EC50 observed after pre-exposure to IVM” value (GluClαF276A/βWT receptor; 50 nM IVM) was ~ 8.5 fold. For the same compound, the “magnitude of the IVM-elicited current” value (GluClαF276A/βWT receptor; 50 nM IVM, -60 mV, just before the second application of Glu) was 70 pA, the “decrease of IVM/Glu response ratio compared to GluClαWT/βWT” value (GluClαF276A/βWT receptor; 500 nM IVM (-60 mV) over Glu-EC50 concentration (+60 mV) peak currents) was ~ 7 fold and the “fold-potentiation of Glu-elicited response by IVM” value (GluClαF276A/βWT receptor; 1 mM Glu before and after exposure to 50 nM IVM) was ~ 18 fold and 17.9 ± 1.8 fold. For the same compound, the “IVM (500 nM) Amplitude” value (GluClαF276A/βWT receptor; CHO cells, 500 nM IVM, -60 mV) was 0.2 ± 0.03 nA, the “Hill coefficient of activation by IVM” value (GluClαF276A/βWT receptor; [2]) was 3.5 and 3.5 ± 0.40 and the EC50 (GluClαF276A/βWT receptor; cumulative IVM concentrations, -60 mV, high-level expression (X-tremeGENE HP)) was 802 nM. The “Fold decrease in Glu-EC50 observed after pre-exposure to IVM” value (GluClαWT/βWT receptor; 7 nM IVM) was ~ 5 fold and 5 fold, the “fold-potentiation of Glu-elicited response by IVM” value (GluClαWT/βWT receptor; 0.3 mM Glu before and after exposure to 7 nM IVM) was ~ 6 fold and 5.9 ± 0.6 fold and the “IVM (500 nM) Amplitude” value (GluClαWT/βWT receptor; CHO cells, 500 nM IVM, -60 mV) was 1.8 ± 0.1 nA. For the same compound, the EC50 (GluClαWT/βWT receptor; [2]) was 40 nM and the “Hill coefficient of activation by IVM” value (GluClαWT/βWT receptor; [2]) was 1.5 and 1.5 ± 0.2.

— paper PMC5382172 (Frontiers in Molecular Neuroscience, 2017)
